According to patent US20140045890A1, “NOVEL COMPOUNDS” (SYNGENTA PARTICIPATIONS AG, priority 2011, published 2014):

Experiments:
[1] = system: Phytophthora infestans; assay: whole plant or invertebrate; assay type: in vivo; details: in Solanum lycopersicum, foliar, read-out: inhibit fungal infestation (percent disease control compared to untreated)
[2] = system: Plasmopara viticola; assay: Plasmopara viticola / grape / leaf disc preventative; assay type: in vivo; details: foliar, grape vine leaf disks, inoculated 1 day after application, assessed 6-8 days after application, read-out: inhibit fungal infestation (percent disease control compared to untreated)
[3] = system: Blumeria qraminis f. sp. tritici (Erysiphe qraminis f. sp. tritici); assay: Blumeria graminis f. sp. tritici / wheat / leaf disc preventative (powdery mildew on wheat); assay type: in vivo; details: foliar, wheat leaf segments cv. Kanzler, inoculated 1 day after application, assessed 6-8 days after application, read-out: inhibit fungal infestation (percent disease control compared to untreated)
[4] = system: Phaeosphaeria nodorum (Septoria nodorum); assay: Phaeosphaeria nodorum (Septoria nodorum) / wheat / leaf disc preventative (glume blotch); assay type: in vivo; details: Parastagonospora nodorum, foliar, wheat leaf segments cv. Kanzler, inoculated 2 days after application, assessed 5-7 days after application, read-out: inhibit fungal infestation (percent disease control compared to untreated)
[5] = system: Pythium ultimum; assay: Pythium ultimum / liquid culture (seedling damping off); assay type: cell-based; details: Globisporangium ultimum, liquid culture in PDB, 24° C., 2-3 days after application, read-out: inhibit fungal infestation (inhibition of growth determined photometrically)

For C#Cc1cnc2ccc(OC(SC)C(=O)NC(C)(C)c3cccc(C)n3)cc2c1 (stereo not drawn) [Compound 15], the inhibition at 200 ppm [1] was ≥ 80%, the inhibition at 200 ppm [2] was ≥ 80% and the inhibition at 200 ppm [3] was ≥ 80%. For the same molecule, the inhibition at 200 ppm [4] was ≥ 80%, the inhibition at 200 ppm [5] was ≥ 80% and the melting point was 148 °C.
In the case of CSC(Oc1cc(C)c2ncc(Br)cc2c1)C(=O)NC(C)(C)c1ccccn1 (stereo not drawn) [Compound 9], the inhibition at 200 ppm [1] is reported as ≥ 80%, the inhibition at 200 ppm [2] is reported as ≥ 80% and the inhibition at 200 ppm [3] is reported as ≥ 80%. The inhibition at 200 ppm [4] was ≥ 80%, the inhibition at 200 ppm [5] was ≥ 80% and the melting point was 123 °C.
For C#Cc1cnc2c(C)cc(OC(SC)C(=O)NC(C)(C)c3ccccn3)cc2c1 (stereo not drawn) [Compound 7], the inhibition at 200 ppm [1] was ≥ 80%, the inhibition at 200 ppm [2] was ≥ 80% and the inhibition at 200 ppm [3] was ≥ 80%. For the same molecule, the inhibition at 200 ppm [4] was ≥ 80%, the inhibition at 200 ppm [5] was ≥ 80% and the melting point was 113 °C.
With C#Cc1cnc2ccc(OC(SC)C(=O)NC(C)(C)c3cc(C)ccn3)cc2c1 (stereo not drawn) [Compound 18, 2-[(3-ethynyl-6-quinolyl)oxy]-N-[1-methyl-1-(4-methyl-2-pyridyl)ethyl]-2-methylsulfanyl-acetamide] the inhibition at 200 ppm [1] was ≥ 80%, the inhibition at 200 ppm [2] was ≥ 80% and the inhibition at 200 ppm [3] was ≥ 80%. For the same molecule, the inhibition at 200 ppm [4] was ≥ 80%, the inhibition at 200 ppm [5] was ≥ 80% and the melting point was 63 °C.
In the case of C#Cc1cnc2c(Cl)cc(OC(OC)C(=O)NC(C)(C)c3ccccn3)cc2c1 (stereo not drawn) [Compound 12], the inhibition at 200 ppm [1] is reported as ≥ 80%, the inhibition at 200 ppm [2] is reported as ≥ 80% and the inhibition at 200 ppm [3] is reported as ≥ 80%. For the same molecule, the inhibition at 200 ppm [4] was ≥ 80%, the inhibition at 200 ppm [5] was ≥ 80% and the melting point was 108 °C.
With C#Cc1cnc2c(C)cc(OC(SC)C(=O)NCc3nc(C)cs3)cc2c1 (stereo not drawn) [Compound 24] the inhibition at 200 ppm [1] was ≥ 80%, the inhibition at 200 ppm [2] was ≥ 80% and the inhibition at 200 ppm [3] was ≥ 80%. The inhibition at 200 ppm [4] was ≥ 80%, the inhibition at 200 ppm [5] was ≥ 80% and the melting point was 148 °C.
For CSC(Oc1ccc2ncc(Br)cc2c1)C(=O)NC(C)(C)c1ccccn1 (stereo not drawn) [Compound 8], the inhibition at 200 ppm [1] was ≥ 80%, the inhibition at 200 ppm [2] was ≥ 80% and the inhibition at 200 ppm [3] was ≥ 80%. The inhibition at 200 ppm [4] was ≥ 80%, the inhibition at 200 ppm [5] was ≥ 80% and the melting point was 105 °C.
With C#Cc1cnc2ccc(OC(SC)C(=O)NC(C)(C)c3nccs3)cc2c1 (stereo not drawn) [Compound 32] the inhibition at 200 ppm [1] was ≥ 80%, the inhibition at 200 ppm [2] was ≥ 80% and the inhibition at 200 ppm [3] was ≥ 80%. For the same molecule, the inhibition at 200 ppm [4] was ≥ 80%, the inhibition at 200 ppm [5] was ≥ 80% and the melting point was 123 °C.
In the case of C#Cc1cnc2c(F)cc(OC(SC)C(=O)NC(C)(C)c3ccccn3)cc2c1 (stereo not drawn) [Compound 11], the inhibition at 200 ppm [1] is reported as ≥ 80%, the inhibition at 200 ppm [2] is reported as ≥ 80% and the inhibition at 200 ppm [3] is reported as ≥ 80%. The inhibition at 200 ppm [4] was ≥ 80%, the inhibition at 200 ppm [5] was ≥ 80% and the melting point was 125 °C.
In the case of C=Cc1cnc2c(C)cc(OC(OC)C(=O)NC(C)(C)c3nc(C)cs3)cc2c1 (stereo not drawn) [Compound 135], the inhibition at 200 ppm [1] is reported as ≥ 80%, the inhibition at 200 ppm [2] is reported as ≥ 80% and the inhibition at 200 ppm [3] is reported as ≥ 80%. The inhibition at 200 ppm [4] was ≥ 80%, the inhibition at 200 ppm [5] was ≥ 80% and the melting point was 139 °C.
In the case of C#Cc1cnc2ccc(OC(SC)C(=O)NC(C)(CC)c3nc(C)cs3)cc2c1 (stereo not drawn) [Compound 20], the inhibition at 200 ppm [1] is reported as ≥ 80%, the inhibition at 200 ppm [2] is reported as ≥ 80% and the inhibition at 200 ppm [3] is reported as ≥ 80%. The inhibition at 200 ppm [4] was ≥ 80%, the inhibition at 200 ppm [5] was ≥ 80% and the melting point was 120 °C.
In the case of C#Cc1cnc2ccc(OC(CC)C(=O)NC(C)(C)c3ccccn3)cc2c1 (stereo not drawn) [Compound 13], the inhibition at 200 ppm [1] is reported as ≥ 80%, the inhibition at 200 ppm [2] is reported as ≥ 80% and the inhibition at 200 ppm [3] is reported as ≥ 80%. For the same molecule, the inhibition at 200 ppm [4] was ≥ 80%, the inhibition at 200 ppm [5] was ≥ 80% and the melting point was 96 °C.
